Measurements taken from the NIST ThermoML archive (doi:10.1016/j.jct.2018.08.012).
Numbers after ± are expanded uncertainties.

Settings: for mass density: 298 K, 101.33 kPa, X-ray diffraction; for Triple point temperature: DSC

mass density (Crystal) | Structure (SMILES) | mass density (Crystal 3) | Normal melting temperature (Crystal 1, DTA) | Triple point temperature (Crystal 2) | Triple point temperature (Crystal 3)
5389 ± 2 kg/m3 | [Ag+].[Ag+].[Ag+].[Ag+].[I-].[I-].[I-].[I-].[I-].[Rb+] [rubidium silver iodide (Ag4RbI5)] |  |  |  | 
 | [Ag+].[Ag+].[Te-2] [silver(I) telluride] | 8321 ± 2 kg/m3 | 962 ± 4 °C | 1075 ± 4 K | 418 ± 4 K
